Entries after “also recorded” stand apart in the source; their conditions may differ. Read-outs that look alike come from different tables or passages of the source.
Columns and labels:
[1] = test system: taxane-resistant melanoma, breast, and lung cancer cells; assay: Cytotoxicity, regular and taxane-resistant lines of Table 2; type: cell-based; settings: Homo sapiens
[2] = test system: human melanoma and breast cancer cell lines; assay: Cytotoxicity, all tested cell lines of Table 1; type: cell-based; settings: Homo sapiens, melanoma and breast lines of Table 1; read-out: IC50 values, range over all tested cell lines
logP = type: physicochemical; settings: Table 1; method not described
A375/TxR cells [3] = assay: Clonogenic assay; type: cell-based, human; settings: 7 days
Procedure: In case of clonogenic assay, A375/TxR cells were seeded in 6-well plates at very low concentration (1000 cells/well). […] Medium was replaced with fresh drug once during the treatment. Cells were then fixed with cold methanol and stained with 0.5% crystal violet. Colony area density was quantified using the Keyence Hybrid Cell Count module.
Cell proliferation inhibition assay: The cell proliferation inhibitory effects of tested compounds were first determined through MTS assay as previously described. In short, 3000 to 7500 cells were added to a 96-well cell culture plate followed by the treatment of the test compounds (0.1 nM to 3 μM) in quadruplicate after seeding and overnight incubation. After 72 hours of treatment, MTS (Promega) was added to the wells and the absorbance was measured at […] after incubating for 1.5 to 2 h. […] Briefly, A375/TxR cells (1000 cells/well) were treated with growth medium containing 0.5 nM, 1 nM, or 2 nM of 5v and incubated for over 7 days (the incubation medium was changed every 3 days). After fixing and staining with 0.5% crystal violet, the cell colonies were quantified by the Hybrid Counting module of the Keyence BZ-X700 microscope. The assay was performed in triplicate.

A375/TxR cells [4] = assay: Wound healing (scratch) assay; type: cell-based, human
Procedure: Scratch-wound assay: The anti-migration effect of 5v was determined by a scratch-wound assay using an IncuCyte S3 live-cell imager as previously reported. After overnight incubation, the monolayers of A375/TxR cells were scratched by a WoundMaker (Essen BioScience) and the cells were treated with 5v (0.5 nM, 1 nM, 2 nM, and 5 nM) for 48 h. The wounds were imaged every 2 h by IncuCyte and the relative wound density was calculated by IncuCyte Scratch Wound Software Module. The assay was performed in quadruplicate.

[5] = Microsomal stability assay; settings: Table 3; liver microsomes; mean (% CV)
MDA-MB-468 = assay: Cytotoxicity assay (MTS, 72 h); type: cell-based, human; settings: Homo sapiens, MDA-MB-468; Table 1; read-out: IC50 (nM) Breast MDA-MB-468
A375/TxR = assay: Cytotoxicity assay (MTS, 72 h); type: cell-based; settings: Homo sapiens, read-out: IC50 ± SEM (nM) A375/TxR
MDA-MB-231 = assay: Cytotoxicity assay (MTS, 72 h); type: cell-based; settings: Homo sapiens
MDA-MB-231/VxR = assay: Cytotoxicity assay (MTS, 72 h); type: cell-based; settings: Homo sapiens
in vitro [6] = settings: human, liver microsomes
RPMI-7951 = assay: Cytotoxicity assay (MTS, 72 h); type: cell-based; settings: Homo sapiens, Table 1, read-out: IC50 (nM) Melanoma RPMI-7951
MDA-MB-453 = assay: Cytotoxicity assay (MTS, 72 h); type: cell-based, human; settings: Homo sapiens, MDA-MB-453
in vitro [7] = settings: mouse, liver microsomes
PANC-1 = assay: Cytotoxicity assay (MTS, 72 h); type: cell-based; settings: Homo sapiens
Procedure: Mia PaCa-2 and PANC-1 cells were seeded in 96-well plates at 4000 and 5000 cells per well, respectively.
Cytotoxicity Assay. […] Each experiment consisted of four replicates.

MDA-MB-231/TxR = assay: Cytotoxicity assay (MTS, 72 h); type: cell-based; settings: Homo sapiens
DU-145/VxR = assay: Cytotoxicity assay (MTS, 72 h); type: cell-based; settings: Homo sapiens, DU-145, read-out: IC50 ± SEM (nM) DU-145/VXR
M14/LCC6MDR1 = assay: Cytotoxicity assay (MTS, 72 h); type: cell-based; settings: Homo sapiens, read-out: IC50 ± SEM (nM) M14/LCC6MDR1
M14 = assay: Cytotoxicity assay (MTS, 72 h); settings: Homo sapiens
A375/TxR xenografts = assay: In vivo A375/TxR melanoma xenograft model; design: species or system NSG mice; settings: for decrease in tumor weight vs vehicle group / tumor reduction / tumor growth inhibition vs control: 2 times per week
[8] = Toxicity of 5m at higher dose in mice; type: in vivo; settings: 5 mg/kg
[9] = Microsomal stability assay; settings: Table 3; liver microsomes; mean (% CV); remark: listed apart in the source
Mia PaCa-2 = assay: Colony formation assay (PDAC); type: cell-based, human; settings: tested 1, 2.5, 5 nM
Procedure: Cells were seeded at 1000 cells per well in 6-well plates in triplicates and treated with vehicle control or 1-5 nmol/L test compounds for 11 to 14 days. The colonies were fixed with 100% methanol and stained with 0.5% crystal violet. Colony area was quantified with Image J software.

[10] = taxane-resistant melanoma, breast, and lung cancer cells, read-out: IC50 values, range against taxane-resistant cells
[11] = MDA-MB-231, read-out: IC50 in MDA-MB-231 parental line
[12] = MDA-MB-231, read-out: IC50 ± SEM (nM) MDA-MB-231, Table 2
[13] = MDA-MB-231, read-out: IC50 ± SEM (nM) MDA-MB-231/VXR
[14] = Table 1, read-out: IC50 (nM) Breast MDA-MB-453
[15] = M14, read-out: IC50 (nM) Melanoma M14
[16] = M14, read-out: IC50 ± SEM (nM) M14
[17] = H&E and anti-human mitochondria IHC

## CCNc1nc2c(c(N3CC(=O)Nc4cc(OC)ccc43)n1)CCC2 [Compound 5v, 4-(2-(ethylamino)-6,7-dihydro-5H-cyclopenta[d]pyrimidin-4-yl)-7-methoxy-3,4-dihydroquinoxalin-2(1H)-one]
[1]; [10]
  IC50: 0.3 to 5 nM
[2]
  IC50: 0.4 to 26 nM
logP
  logP: 2.39
A375/TxR cells [3]
  colony formation of A375/TxR cells: inhibit the proliferation of A375/TxR cell colonies in a concentration-dependent manner
A375/TxR cells [4]
  migration of A375/TxR cells: remarkable potency in inhibiting the cell migration of A375/TxR cells
[5]
  Metabolic stability in rat t1/2: 3.6 min
MDA-MB-468
  IC50: 0.8 ± 0.1 nM
A375/TxR; Table 2, paclitaxel-resistant
  IC50: 0.3 ± 0.03 nM
MDA-MB-231; MDA-MB-231, read-out: IC50 (nM) Breast Cancer MDA-MB-231, Table 6
  IC50: 2.6 ± 0.5 nM
MDA-MB-231; MDA-MB-231, read-out: IC50 (nM) Breast MDA-MB-231, Table 1
  IC50: 0.7 ± 0.1 nM
MDA-MB-231; [11]
  IC50: 1 to 2.2 nM
MDA-MB-231; [12]
  IC50: 1 ± 0.2 nM
MDA-MB-231/VxR; [13]
  IC50: 1.2 ± 0.3 nM
In vitro [6]
  half-life at 1 μg/mL: 24.7 min
  microsomal CLint at 1 μg/mL: 28.1 µL/min/mg
RPMI-7951
  IC50: 0.5 ± 0.1 nM
MDA-MB-453; [14]
  IC50: 0.43 ± 0.1 nM
MDA-MB-453; Table 6, read-out: IC50 (nM) Breast Cancer MDA-MB-453
  IC50: 1.3 ± 0.5 nM
In vitro [7]
  half-life at 1 μg/mL: 6.33 min
  microsomal CLint at 1 μg/mL: 109 µL/min/mg
PANC-1; Table 6, read-out: IC50 (nM) Pancreatic cancer PANC-1
  IC50: 3.7 ± 0.7 nM
MDA-MB-231/TxR; read-out: IC50 ± SEM (nM) MDA-MB-231/TxR, Table 2, paclitaxel-resistant
  IC50: 0.6 ± 0.1 nM
DU-145/VxR
  IC50: 1 ± 0.1 nM
M14/LCC6MDR1; Table 2, multidrug-resistant
  IC50: 0.3 ± 0.03 nM
M14; M14, read-out: IC50 (nM) Melanoma Cancer M14
  IC50: 1.5 ± 0.3 nM
M14; [15]
  IC50: 0.6 ± 0.1 nM
M14; [16]
  IC50: 0.3 ± 0.04 nM
A375/TxR xenografts; 2 mg/kg IV
  decrease in tumor weight vs vehicle group: 47.4%
  tumor reduction / tumor growth inhibition vs control: 62.3%
A375/TxR xenografts; 2 mg/kg or 4 mg/kg, three weeks
  toxicity to major organs (heart, kidney, spleen), H&E: no obvious damage to the major organs; also recorded: no toxicity to major organs
A375/TxR xenografts; 2 mg/kg, 4 mg/kg
  cleaved caspase-3 in tumors, IHC: significantly increased the proportion of cleaved caspase-3 positive cells
A375/TxR xenografts; 4 mg/kg IV
  decrease in tumor weight vs vehicle group: 59.9%
  tumor reduction / tumor growth inhibition vs control: 76.6%
A375/TxR xenografts; 2 and 4 mg/kg
  Ki67 and CD31 expression in tumors, IHC: significantly decreased
A375/TxR xenografts; [17]
  spontaneous liver metastasis: significant inhibition of lung or liver metastasis
  spontaneous lung metastasis: significant inhibition of lung or liver metastasis
A375/TxR xenografts; all doses tested
  mouse body weight during therapy: no body weight loss observed
A375/TxR xenografts; mouse, in vivo
  tumor necrosis, H&E: more necrotic cells in 5v-treated tumors

## COc1ccc2c(c1)NC(=O)CN2c1nc(C)nc2c1CCC2 [Compound 5m, 7-methoxy-4-(2-methyl-6,7-dihydro-5H-cyclopenta[d]pyrimidin-4-yl)-3,4-dihydroquinoxalin-2(1H)-one]
[1]; melanoma, breast and lung cancer cell lines, read-out: IC50 values, range against regular and paclitaxel-resistant lines
  IC50: 1 to 5 nM
[1]; [10]
  IC50: 0.3 to 5 nM
[2]
  IC50: 0.4 to 26 nM
logP
  logP: 2.96
A375/TxR cells [3]
  colony formation of A375/TxR cells: completely inhibited the colony formation at high dose, i.e., 2 nM
A375/TxR cells [4]
  migration of A375/TxR cells: markedly inhibited the migration of A375/TxR cells
[5]
  Metabolic stability in rat t1/2: 8.0 min
  Metabolic stability in rat t1/2 (min): 7.97 (0.7) min
MDA-MB-468
  IC50: 1.8 ± 0.4 nM
A375/TxR
  IC50: 1.1 nM
[8]
  toxicity at higher dose: had toxicity
MDA-MB-231; [11]
  IC50: 1 to 2.2 nM
MDA-MB-231; [12]
  IC50: 1.7 ± 0.4 nM
MDA-MB-231/VxR; MDA-MB-231, 72 h, read-out: IC50 in Compound 17ya resistant MDA-MD-231/VxR cells
  IC50: 1.2 to 2.9 nM
MDA-MB-231/VxR; [13]
  IC50: 2.3 ± 0.4 nM
In vitro [6]
  CLint scaled at 1 μg/mL: 0.78 L/h/kg
RPMI-7951
  IC50: 1.5 ± 0.4 nM
MDA-MB-453; [14]
  IC50: 0.5 ± 0.1 nM
In vitro [7]
  CLint scaled at 1 μg/mL: 2.88 L/h/kg
PANC-1; Example 7, FIG. 20, read-out: calculated IC50, PANC-1 cells
  IC50: 2.7 nM
MDA-MB-231/TxR; read-out: IC50 ± SEM (nM) MDA-MB-231/TxR
  IC50: 1.5 ± 0.3 nM
DU-145/VxR
  IC50: 3.7 ± 0.6 nM
[9]
  Metabolic stability in human t1/2: 53.6 min
M14/LCC6MDR1
  IC50: 1.4 ± 0.3 nM
Mia PaCa-2
  dose at which colony formation was completely inhibited: 1 nM
M14; [15]
  IC50: 1.4 ± 0.4 nM
M14; [16]
  IC50: 1.3 ± 0.2 nM
A375/TxR xenografts; 2.5 mg/kg IV, 7 doses within 24 days
  decrease of final tumor volume vs vehicle: 64.6%
